Results taken from patent US20220072165A1, “RADIODRUG FOR DIAGNOSTIC/THERAPEUTIC USE IN NUCLEAR MEDICINE AND RADIO-GUIDED MEDICINE” (UNIVERSITÀ DEGLI STUDI DI ROMA "LA SAPIENZA", priority 2019, published 2022).
pIC50: −log10 of the molar value. Blank lines part the entries; values can stand above or below the compound they belong to.

Columns and labels:
[1] = stability in human serum (release of ^90Y^3+ to serum proteins); type: in vitro ADME; conditions: 32 MBq per 16 ml, T=37° C., 14 days
Experimental: The stability in serum of the […] chelate of Formula II (1 or MC4324) has been evaluated by measuring the release of the metal cation ^90Y^3+ from the chelate to the serum proteins during 14 days in which it has been kept in physiological conditions. Briefly, the ^90Y-DOTA-BG chelate of Formula II (1 or MC4324) has been incubated with human serum (32 MBq for 16 ml of serum) at T=37° C. At regular time intervals serum aliquots have been collected and, by using centrifuge filter tubes (Amicon® Ultra-4 3K, Merck Millipore) and by centrifuging at 5500 g, the serum proteins have been separated from the non-protein fraction of serum and the radioactivity of both fractions has been measured with a liquid scintillation β counter (scintillation liquid used is Perkin Elmer ULTIMA GOLD).
The stability in serum of the chelates of Formula III (10a, MC4801) and IV (10b, MC4803) has been evaluated by measuring the release of the metal cation ^90Y^3+ from the chelates to the serum proteins during 14 days in which they have been kept in physiological conditions. Briefly, the chelates of Formula III (10a, MC4801) and IV (10b, MC4803) have been incubated with human serum (32 MBq per 16 ml of serum) at T=37° C. At regular time intervals serum aliquots have been collected and, by using centrifuge filter tubes (Amicon® Ultra-4 3K, Merck Millipore) and by centrifuging at 5500 g, the serum proteins have been separated from the non-protein fraction of serum and the radioactivity of both fractions has been measured with a liquid scintillation β counter (scintillation liquid used is Perkin Elmer ULTIMA GOLD).

[2] = molecular target: T1, norepinephrine transporter (NET) (Homo sapiens, UniProt P23975); assay: competition with ^3H-NE for uptake by SK-N-SH cells; type: cell-based; conditions: for inhibition of the uptake/internalization of ^3H-NE (competition with ^3H-NE): 1 hour, tested up to 100 μM; for substrate of NET compared with MIBG: competition with ^3H-NE
T1 construct: human neuroblastoma cells SK-N-SH, which are known to express the transporter NET in large quantity; host or cells: SK-N-SH human neuroblastoma cells
T1 sequence (P23975 whole entry): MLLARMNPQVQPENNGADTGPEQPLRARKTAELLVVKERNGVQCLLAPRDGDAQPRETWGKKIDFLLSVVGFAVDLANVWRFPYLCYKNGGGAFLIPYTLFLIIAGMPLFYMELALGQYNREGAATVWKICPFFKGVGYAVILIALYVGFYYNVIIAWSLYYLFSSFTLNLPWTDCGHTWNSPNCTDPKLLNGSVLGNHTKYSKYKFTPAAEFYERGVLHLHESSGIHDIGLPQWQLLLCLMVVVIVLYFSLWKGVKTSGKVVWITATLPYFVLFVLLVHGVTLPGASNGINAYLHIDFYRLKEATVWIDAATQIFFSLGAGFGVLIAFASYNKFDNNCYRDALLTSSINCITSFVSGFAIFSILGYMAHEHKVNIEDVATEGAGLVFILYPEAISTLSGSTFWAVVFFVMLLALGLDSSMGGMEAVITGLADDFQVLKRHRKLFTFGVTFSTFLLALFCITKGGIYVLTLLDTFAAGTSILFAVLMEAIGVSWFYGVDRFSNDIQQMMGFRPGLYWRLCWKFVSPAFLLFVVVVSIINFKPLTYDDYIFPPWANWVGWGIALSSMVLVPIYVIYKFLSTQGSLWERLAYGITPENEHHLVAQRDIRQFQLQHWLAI
From the text: The ability of the ^89Y-DOTA-BG chelate (1a, MC4324) (non-radioactive analogue of the compound of Formula II, 1 or MC4324) to act as substrate of NET has been evaluated in competition experiments with the tritiated endogenous substrate ^3H-NE for the uptake by the human neuroblastoma cells SK-N-SH, which are known to express the transporter NET in large quantity. […] This provides the ability to prepare radio-marked versions of the chelate of Formula II (or MC4324) with an even low specific activity, because the absence of competition for NET between the chelate (MC4324) and the free binder 9 (MC4325) doesn't compromise the bonding ability to NET of the chelate (compound of Formula II, MC4324) also in the presence of an excess of free binder 9 (MC4325).
FIG. 3 depicts the competition of the ^89Y-DOTA-BG chelate (1a, MC4324) (non-radioactive analogue of the compound of Formula II, 1 or MC4324) and of free binder 9 (MC4325) with ^3H-NE (50 nM, 1 hour incubation, T=37° C.) for the uptake by the SK-N-SH cells. ^1H-NE a 20 μM and MIBG @ 2 μM have been used as positive controls.
^3H-NE has been purchased from Perkin Elmer. To measure the initial cell uptake speeds of ^3H-NE, the cells have been grown for 16 hours in the presence of serum only, then incubated with binder medium (EMEM containing 0.2% BSA and 20 mM Hepes, pH 7.5) for 10 minutes by heating in a water bath at 37° C. The bond has been initiated by adding 0.5 ml per well of 50 nM ^3H-NE to the binder medium for […], the plates have then been placed on ice and washed three times with frozen PBS. Thus, the cell monolayers have been dried and lysed with […]. The cpm (“counts” per minute) have been determined separately in the different wells in triple for each time. By cpm is meant “counts” or “hits” per minute, i.e. the nuclear disintegrations that occur in one minute. These disintegrations come from inside the cells after these have been, following the order below: 1) incubated with ^3H-NE, 2) washed with PBS to eliminate ^3H-NE remained outside the cells, 3) lysed for better detecting the radioactivity due to the internalized ^3H-NE only.
The background bond has been determined in parallel in a fourth well containing a 400 times molar excess of non-marked ^1H-NE (“cold”). For the competition study, the cells have been plated as above, and thus incubated for 1 hour with 50 nM ^3H-NE in binder medium in the absence and presence of the ^89Y-DOTA-BG chelate (compound of Formula II, 1a or MC4324) (non-radioactive analogue of the compound of Formula II, 1 or MC4324) and free binder 9 (MC4325) at different concentrations. The radioactivity has been determined separately in the wells in triple for each concentration value. The uptake of ^3H-NE has been expressed as total radioactivity percentage normalized for mg of protein.
The ability of the “cold” chelates of Formula III (10a′, MC4801) and IV (10b′, MC4803) to act as substrates of NET has been evaluated in competition experiments with the tritiated endogenous substrate ^3H-NE for the uptake by the human neuroblastoma cells SK-N-SH, which are known to express the transporter NET in large quantity. […] Therefore also in this case it is possible to prepare radio-marked versions of the chelates of Formula III (10a, MC4801) and IV (10b, MC4803) with low specific activity, as the absence of competition for NET between the chelates 10a,b (MC4801 and MC4803) and the respective free binders 13a,b (MC4802 and MC4804) doesn't compromise the bonding ability to NET of the chelates [compounds of Formula III (10a, MC4801) and IV (10b, MC4803)] also in the presence of an excess of free binders 13a,b (MC4802 and MC4804). […]

[3] = test system: human neuroblastoma line SK-N-SH; assay: cytotoxic effects in SK-N-SH cells; type: cell-based; conditions: up to the maximum concentration tested (100 μM)
[4] = chemical stability in physiological conditions (PBS buffer, 37° C., analytical HPLC); type: physicochemical; conditions: for Area 1 (chromatographic peak of compound 1a) / Area (1 + 2) (peaks of compound 1a and impurity 2): PBS, 37° C.
Experimental: The stability of the chelate ^89Y-DOTA-BG (1a, MC4324) (non-radioactive analogue of the compound of Formula II, 1 or MC4324) in physiological conditions has been evaluated by analysis with analytical HPLC (Shimadzu Nexera chromatograph equipped with a SPD-M20A PDA detector; Hypersil ODS GOLD 250×4.6 mm column; eluent: MeOH/H2O 5:95 v/v+0.02% TFA, flow: 1.0 ml/min; UV detection 214 nm) repeated at regular time intervals after having solubilized it in PBS buffer (c=0.9 mg/ml) and kept at T=37° C.
FIG. 2 depicts the HPLC plot relative to the compound ^89Y-DOTA-BG (1a) solubilized in PBS buffer (c=0.9 mg/ml) and at T=37° C. time t=0 min (A), t=21 hours (B) and t=5 days (C). […]

SMILES: N=C(N)NCc1cccc(C(=O)NCCNC(=O)CN2CCN(CC(=O)O)CCN(CC(=O)O)CCN(CC(=O)O)CC2)c1 [compound 9, 2,2′,2″-(10-(2-((2-(3-(guanidinomethyl)benzamido)ethyl)amino)-2-oxoethyl)-1,4,7,10-tetraazacyclododecane-1,4,7-triyl) triacetic acid]
inhibition of the uptake/internalization of ^3H-NE (competition with ^3H-NE) ([2]; 50 nM ^3H-NE, 37° C.): completely unable to compete

SMILES: NC[C@H](O)c1ccc(O)c(O)c1 [^1H-NE, reference compound]
competition of positive control with ^3H-NE for the internalization ([2]; non-marked ^1H-NE at 20 μM): compete with ^3H-NE for the internalization

SMILES: N=C(N)NCc1cccc(I)c1 [MIBG, reference compound]
competition of positive control with ^3H-NE for the internalization ([2]; non-marked MIBG at 2 μM): compete with ^3H-NE for the internalization

SMILES: N=C(N)NCc1cccc(C(=O)NCCNC(=O)CN2CCN(CC(=O)[O-])CCN(CC(=O)[O-])CCN(CC(=O)[O-])CC2)c1.[90Y+3] [compound 1]
loss of radioactivity (^90Y^3+) in favor of the protein fraction of serum [1]: no measurable loss of radioactivity

SMILES: N=C(N)NCc1cccc(C(=O)NCCCNC(=O)CN2CCN(CC(=O)[O-])CCN(CC(=O)[O-])CCN(CC(=O)[O-])CC2)c1.[89Y+3] [10a′]
inhibition of the uptake/internalization of ^3H-NE (competition with ^3H-NE) ([2]; 50 nM ^3H-NE, 37° C.): dose-dependent inhibition
substrate of NET compared with MIBG [2]: substrate of NET analogously to MIBG, even though with lower power
substrate of NET compared with MIBG ([2]; listed as Formula III): substrates of NET analogously to MIBG
cytotoxic effects [3]: without dose-dependent cytotoxic effects
cytotoxic effects ([3]; listed as Formula III): without cytotoxic effects

Second part, led by results:

loss of radioactivity (^90Y^3+) in favor of the protein fraction of serum [1]: no measurable loss of radioactivity
SMILES: N=C(N)NCc1cccc(C(=O)NCCCNC(=O)CN2CCN(CC(=O)[O-])CCN(CC(=O)[O-])CCN(CC(=O)[O-])CC2)c1.[90Y+3] [10a]

inhibition of the uptake/internalization of ^3H-NE (competition with ^3H-NE) ([2]; 50 nM ^3H-NE, 37° C.): completely unable to compete
SMILES: N=C(N)NCc1cccc(C(=O)NCCCNC(=O)CN2CCN(CC(=O)O)CCN(CC(=O)O)CCN(CC(=O)O)CC2)c1 [13a, 2,2′,2″-(10-(2-((3-(3-(guanidinomethyl)benzamido)propyl)amino)-2-oxoethyl)-1,4,7,10-tetraazacyclododecane-1,4,7-triyl) triacetic acid]

pIC50 ([2]; 50 nM ^3H-NE, 1 hour incubation, 37° C., read-out: inhibition of the ^3H-NE uptake IC50): ~5.00
inhibition of the uptake/internalization of ^3H-NE (competition with ^3H-NE) ([2]; 50 nM ^3H-NE, 37° C.): dose-dependent inhibition
chemical purity after 5 days ([4]; PBS buffer c=0.9 mg/ml, T=37° C., HPLC UV 214 nm, 5 days): higher than 99.5%
Area 1 (chromatographic peak of compound 1a) ([4]; time 0 min): 34.78
Area (1 + 2) (peaks of compound 1a and impurity 2) ([4]; time 0 min): 35.13
Area 1 (chromatographic peak of compound 1a) ([4]; time 30 min): 35.09
Area (1 + 2) (peaks of compound 1a and impurity 2) ([4]; time 30 min): 35.29
Area 1 (chromatographic peak of compound 1a) ([4]; time 1 hour 30 min): 35.07
Area (1 + 2) (peaks of compound 1a and impurity 2) ([4]; time 1 hour 30 min): 35.30
Area 1 (chromatographic peak of compound 1a) ([4]; time 5 hours): 35.13
Area (1 + 2) (peaks of compound 1a and impurity 2) ([4]; time 5 hours): 35.40
Area 1 (chromatographic peak of compound 1a) ([4]; time 21 hours): 37.15
Area (1 + 2) (peaks of compound 1a and impurity 2) ([4]; time 21 hours): 37.45
Area 1 (chromatographic peak of compound 1a) ([4]; time 5 days): 38.34
Area (1 + 2) (peaks of compound 1a and impurity 2) ([4]; time 5 days): 38.65
SMILES: N=C(N)NCc1cccc(C(=O)NCCNC(=O)CN2CCN(CC(=O)[O-])CCN(CC(=O)[O-])CCN(CC(=O)[O-])CC2)c1.[89Y+3] [1a]
substrate of NET compared with MIBG [2]: substrate of NET analogously to MIBG, even though with lower power
cytotoxic effects [3]: without dose-dependent cytotoxic effects

loss of radioactivity (^90Y^3+) in favor of the protein fraction of serum [1]: no measurable loss of radioactivity
SMILES: N=C(N)NCc1cccc(C(=O)NCCCCNC(=O)CN2CCN(CC(=O)[O-])CCN(CC(=O)[O-])CCN(CC(=O)[O-])CC2)c1.[90Y+3] [10b]

inhibition of the uptake/internalization of ^3H-NE (competition with ^3H-NE) ([2]; 50 nM ^3H-NE, 37° C.): completely unable to compete
SMILES: CC(CCNC(=O)CN1CCN(CC(=O)O)CCN(CC(=O)O)CCN(CC(=O)O)CC1)NC(=O)c1cccc(CNC(=N)N)c1 (stereo not drawn) [13b, 2,2′,2″-(10-(2-((3-(3-(guanidinomethyl)benzamido)butyl)amino)-2-oxoethyl)-1,4,7,10-tetraazacyclododecane-1,4,7-triyl) Triacetic Acid]
